Columns and labels:
[1] = tested on: culture-adapted P. falciparum parasite lines; experiment: in-vitro Piperaquine Survival Assay (PSA) on culture-adapted parasites; format: cell-based, Plasmodium falciparum; settings: for in-vitro PSA survival rate (%): 200 nM PPQ for 48 hours
Method: (§1) Cryopreserved parasites were culture-adapted as described.^12 Susceptibility to PPQ was investigated using in-vitro PSA for culture-adapted parasites and ex-vivo PSA for fresh isolates. Survival rates were assessed microscopically and parasites with a survival rate ≥10% were considered PPQ-resistant.^7 msp1, msp2 and glurp polymorphisms were determined to distinguish recrudescent from new infections.^13 Sequencing of the K13-propeller domain was used to screen for ART-resistance.^1 Whole-genome sequencing was performed using Illumina paired-reads sequencing.^1 Data were integrated into the Whole-genome Data Manager (WDM) database^14 and exomes of PPQ-resistant and -sensitive lines were compared after excluding low-coverage positions (i.e., lower than 25% of the genome-wide mean coverage). Genes from highly variable multigene families (var, rifin, phist and stevor) were excluded.^1 CNVs and SNPs were investigated using PlasmoCNVScan and Phen2gen software (see below). 1+PfPM2 and Pfmdr1 copy number was determined by qPCR (see below). Steady-state PfPM2 mRNA levels were measured by RT-qPCR (see below) and PfPM2 protein expression by immunoblotting (see below).
In-vitro susceptibility to PPQ was investigated using the in-vitro or the ex-vivo PSA, which is based on exposing very early ring-stage parasites to 200 nM PPQ for 48 hours, washing away the drug, and assessing parasite growth after a further 24 hours of culture. Survival rates at the 72 hour time point were assessed microscopically by counting the proportion of viable parasites in exposed and non-exposed cultures that developed into second-generation rings or trophozoites with normal morphology. Parasites with a survival rate ≥10% were considered PPQ-resistant.^5

[2] = tested on: freshly collected P. falciparum patient isolates; experiment: ex-vivo Piperaquine Survival Assay (PSA) on fresh isolates; format: cell-based, Plasmodium falciparum
Method: Blood samples were collected into acid-citrate-dextrose tubes (Becton-Dickinson, USA) before treatment and sent to Institut Pasteur in Cambodia within 24 hours. A sub-set of freshly collected samples was used to perform the ex-vivo PSA.^7 All samples were cryopreserved in glycerolyte. Red cell pellets were stored at −20° C. for molecular studies. Blood spots were prepared on day 0 and when applicable on the day of recrudescence.
as §1, with “Genes from highly variable multigene families (var, rifin, phist and stevor) were excluded.^1 CNVs and SNPs were investigated using PlasmoCNVScan and Phen2gen software (see below).” left out, “Steady-state PfPM2 mRNA levels were measured by RT-qPCR (see below) and PfPM2 protein expression by immunoblotting (see below).” left out

Clc1ccc2c(N3CCN(CCCN4CCN(c5ccnc6cc(Cl)ccc56)CC4)CC3)ccnc2c1 [PPQ, piperaquine]
in-vitro susceptibility to PPQ ([1]; 3D7 reference line): Sensitive (sensitive if survival rates were <10%)
in-vitro PSA survival rate (%) ([1]; 3D7 reference line, survival at 72 hour): 0.1%
In-vitro PSA survival rate, PSA mean value ([1]; one sequence with DNA expansion type 3): 39.3%
in-vitro susceptibility to PPQ ([1]; parasite line 6218): Resistant (resistant if survival rates were ≥10%)
in-vitro PSA survival rate (%) ([1]; parasite line 6218 (2012, Battambang)): 40.8%
in-vitro susceptibility to PPQ ([1]; parasite line 6219): Resistant (resistant if survival rates were ≥10%)
in-vitro PSA survival rate (%) ([1]; parasite line 6219 (2012, Battambang)): 58.6%
in-vitro susceptibility to PPQ ([1]; parasite line 6224): Resistant (resistant if survival rates were ≥10%)
in-vitro PSA survival rate (%) ([1]; parasite line 6224 (2012, Pursat)): 61.4%
in-vitro susceptibility to PPQ ([1]; parasite line 6229): Resistant (resistant if survival rates were ≥10%)
in-vitro PSA survival rate (%) ([1]; parasite line 6229 (2012, Battambang)): 46.6%
in-vitro susceptibility to PPQ ([1]; parasite line 6237): Sensitive (sensitive if survival rates were <10%)
in-vitro PSA survival rate (%) ([1]; parasite line 6237 (2012, Kampong Thom)): 0.8%
in-vitro susceptibility to PPQ ([1]; parasite line 6246): Resistant (resistant if survival rates were ≥10%)
in-vitro PSA survival rate (%) ([1]; parasite line 6246 (2012, Kampong Speu)): 36.9%
in-vitro susceptibility to PPQ ([1]; parasite line 6261): Resistant (resistant if survival rates were ≥10%)
in-vitro PSA survival rate (%) ([1]; parasite line 6261 (2012, Pursat)): 70.5%
in-vitro susceptibility to PPQ ([1]; parasite line 6267): Sensitive (sensitive if survival rates were <10%)
in-vitro PSA survival rate (%) ([1]; parasite line 6267 (2012, Kampong Speu)): 0.5%
in-vitro susceptibility to PPQ ([1]; parasite line 6272): Resistant (resistant if survival rates were ≥10%)
in-vitro PSA survival rate (%) ([1]; parasite line 6272 (2012, Battambang)): 40.0%
in-vitro susceptibility to PPQ ([1]; parasite line 6273): Sensitive (sensitive if survival rates were <10%)
in-vitro PSA survival rate (%) ([1]; parasite line 6273 (2012, Kampong Speu)): 0.2%
in-vitro susceptibility to PPQ ([1]; parasite line 6280): Resistant (resistant if survival rates were ≥10%)
in-vitro PSA survival rate (%) ([1]; parasite line 6280 (2012, Battambang)): 28.9%
in-vitro susceptibility to PPQ ([1]; parasite line 6293): Resistant (resistant if survival rates were ≥10%)
in-vitro PSA survival rate (%) ([1]; parasite line 6293 (2012, Battambang)): 39.3%
in-vitro susceptibility to PPQ ([1]; parasite line 6302): Resistant (resistant if survival rates were ≥10%)
in-vitro PSA survival rate (%) ([1]; parasite line 6302 (2012, Battambang)): 42.5%
in-vitro susceptibility to PPQ ([1]; parasite line 6320): Resistant (resistant if survival rates were ≥10%)
in-vitro PSA survival rate (%) ([1]; parasite line 6320 (2012, Battambang)): 62.1%
in-vitro susceptibility to PPQ ([1]; parasite line 6337): Sensitive (sensitive if survival rates were <10%)
in-vitro PSA survival rate (%) ([1]; parasite line 6337 (2012, Kampong Speu)): 0.4%
in-vitro susceptibility to PPQ ([1]; parasite line 6341): Resistant (resistant if survival rates were ≥10%)
in-vitro PSA survival rate (%) ([1]; parasite line 6341 (2012, Pursat)): 25.8%
in-vitro susceptibility to PPQ ([1]; parasite line 6349): Sensitive (sensitive if survival rates were <10%)
in-vitro PSA survival rate (%) ([1]; parasite line 6349 (2012, Kampong Thom)): 0.6%
in-vitro susceptibility to PPQ ([1]; parasite line 6365): Resistant (resistant if survival rates were ≥10%)
in-vitro PSA survival rate (%) ([1]; parasite line 6365 (2012, Battambang)): 51.8%
in-vitro susceptibility to PPQ ([1]; parasite line 6369): Sensitive (sensitive if survival rates were <10%)
in-vitro PSA survival rate (%) ([1]; parasite line 6369 (2012, Pursat)): 6.4%
in-vitro susceptibility to PPQ ([1]; parasite line 6391): Resistant (resistant if survival rates were ≥10%)
in-vitro PSA survival rate (%) ([1]; parasite line 6391 (2012, Battambang)): 39.4%
in-vitro susceptibility to PPQ ([1]; parasite line 6394): Resistant (resistant if survival rates were ≥10%)
in-vitro PSA survival rate (%) ([1]; parasite line 6394 (2012, Battambang)): 56.7%
in-vitro susceptibility to PPQ ([1]; parasite line 6395): Resistant (resistant if survival rates were ≥10%)
in-vitro PSA survival rate (%) ([1]; parasite line 6395 (2012, Battambang)): 19.2%
in-vitro susceptibility to PPQ ([1]; parasite line 6403): Sensitive (sensitive if survival rates were <10%)
in-vitro PSA survival rate (%) ([1]; parasite line 6403 (2012, Pursat)): 0.5%
in-vitro susceptibility to PPQ ([1]; parasite line 6408): Resistant (resistant if survival rates were ≥10%)
in-vitro PSA survival rate (%) ([1]; parasite line 6408 (2012, Battambang)): 58.7%
in-vitro susceptibility to PPQ ([1]; parasite line 6410): Sensitive (sensitive if survival rates were <10%)
in-vitro PSA survival rate (%) ([1]; parasite line 6410 (2012, Battambang)): 6.0%
in-vitro susceptibility to PPQ ([1]; parasite line 6411): Resistant (resistant if survival rates were ≥10%)
in-vitro PSA survival rate (%) ([1]; parasite line 6411 (2012, Battambang)): 71.6%
in-vitro susceptibility to PPQ ([1]; parasite line 6427): Resistant (resistant if survival rates were ≥10%)
in-vitro PSA survival rate (%) ([1]; parasite line 6427 (2012, Battambang)): 77.4%
in-vitro susceptibility to PPQ ([1]; parasite line 6429): Resistant (resistant if survival rates were ≥10%)
in-vitro PSA survival rate (%) ([1]; parasite line 6429 (2012, Pursat)): 51.8%
in-vitro susceptibility to PPQ ([1]; parasite line 6430): Resistant (resistant if survival rates were ≥10%)
in-vitro PSA survival rate (%) ([1]; parasite line 6430 (2012, Battambang)): 51.3%
in-vitro susceptibility to PPQ ([1]; parasite line 6431): Resistant (resistant if survival rates were ≥10%)
in-vitro PSA survival rate (%) ([1]; parasite line 6431 (2012, Battambang)): 61.5%
in-vitro susceptibility to PPQ ([1]; parasite line 6443): Resistant (resistant if survival rates were ≥10%)
in-vitro PSA survival rate (%) ([1]; parasite line 6443 (2012, Battambang)): 49.6%
In-vitro PSA survival rate, PSA mean value ([1]; parasites harboring DNA expansion type 1 (N=13)): 44.8%
In-vitro PSA survival rate, PSA mean value ([1]; parasites harboring DNA expansion type 2 (N=6)): 64.9%
In-vitro PSA survival rate, PSA mean value ([1]; parasites harboring DNA expansion type 4 (N=2)): 16.2%
median ex-vivo PSA survival rate ([2]; isolates with unamplified (single copy) PfPM2): 0.004%
median ex-vivo PSA survival rate ([2]; isolates with ≥2 PfPM2 copies): 51.7%

Reference: patent publication US12168805B2, “Methods and reagents for detecting piperaquine-resistant plasmodium falciparum malaria” (priority 2016, dated 2024)
